# Laboratory results published in patent publication US20230416329A1, “A PEPTIDE WITH DISULFIDE BONDS AND INHIBITORY ACTIVITY AGAINST SERINE PROTEASES, DERIVED HYBRID PEPTIDES THEREOF, AND USES THEREOF” (INSTITUTE OF MATERIA MEDICA , CHINESE ACADEMY OF MEDICAL …, priority 2020, published 2023).
# “And” between values parts separate entries of the source, which are not always exact repeats. Identical values can stand only once.
# Test system: mouse ear swelling
# Experiment: Croton oil mouse ear swelling, IL-17A inhibitory peptide administered via duodenum
# Assay type: in vivo
# Conditions: peptides 300 mg/kg, dexamethasone 1 mg/mL, 10 mL/kg
# Description: Enteric coating technology can be used to achieve oral administration of targeted small intestine drugs. Considering factors such as gastric emptying and physical barriers in the stomach, in order to accurately detect the feasibility of direct intestinal administration of targeted IL-17A inhibitory peptide, duodenal administration is designed. Eight mice in each group are subjected to surgical exposure of the duodenum under ether anesthesia, and the drug is injected according to different grouping schemes.
# The model control group (Con) is given PEG400 (50%, w/v)/physiological saline. The administration group was given different polypeptide samples (300 mg/kg), while the positive control group was given dexamethasone (1 mg/mL, 10 mL/kg), and then the muscular layer and cortex were sutured. Ear swelling model was established 6 minutes after suture. All mice in each group were coated with 10 μL croton oil on both sides of the right ear. After 4 hours of inflammation, the mice in each group were killed for cervical dislocation. After that, ear pieces were punched in the symmetrical parts of the left and right ears with a hole punch and weighed. Their mass was recorded. The swelling degree and swelling rate were calculated:
# Swelling rate=((right ear mass−left ear mass)/left ear mass)*100%
smiles,measurement,setting,value
C[C@@H]1C[C@H]2[C@@H]3CCC4=CC(=O)C=C[C@]4(C)[C@@]3(F)[C@@H](O)C[C@]2(C)[C@@]1(O)C(=O)CO [dexamethasone],Swelling (%),4 hours after croton oil,58.11 ± 18.81 % and 65.67 ± 15.52 %
same,Swelling inhibitory (%),vs model control,39.57% and 28.84%
